Test results reported in patent US20240033200A1, “SEMI-PERMANENT TATTOOS” (Inkbox Ink Inc., priority 2020, published 2024).

What was measured:
[1] = Reaction with L-lysine (amino acids) to mimic skin binding; colour and UV-VIS of the dye formed; details: for color of solution 1 hr after the addition of L-lysine: 1 hr after L-lysine; for color produced upon reaction with amino acids: Additional Color Combinations; for color of solution after the addition of L-lysine: after addition of L-lysine ("Add Lysine"/"Lysine added"); for color of L-lysine reaction solution after dilution: after dilution (vial at left); for color of solution before the addition of L-lysine: before L-lysine (Time 0); for color of dye produced by reaction with L-lysine / λmax of dye produced after reaction with L-lysine: methanol, 2 equivalents L-lysine, room temperature; for color of dye produced by reaction with L-lysine: open air; for λmax of dye produced after reaction with L-lysine: open air (44 hours for Compound 1, overnight for others)
Experimental: Compound 1 was weighed out (0.03 mmol) into a small vial equipped with a magnetic stir bar. To this vial, 1 mL of methanol was added and stirred until solubilized. L-lysine was then added to the stirred solution (2 equivalents) and the reaction mixture was capped and stirred over 44 hours at room temperature. A needle was punctured through the vial cap to ensure the reaction is conducted under open air. This method produced a yellow dye with a λmax=436 nm. See also FIGS. 26A and 26B.
(§1) Compound 10 was weighed out (n=0.03 mmol) into a small vial equipped with a magnetic stir bar. To this, 1 mL of methanol was added and stirred until solubilized. L-lysine was then added to the stirred solution (2 equivalents) and the reaction mixture was capped and stirred overnight at room temperature. A needle was punctured through the vial cap to ensure the reaction is conducted under open air. This produced a yellow dye with a λmax=433 nm.
as §1, with “14” for “10”, “produces” for “produced”, “red” for “yellow”, “λmax=480” for “λmax=433”
(§2) Compound 11 was weighed out (n=0.03 mmol) into a small vial equipped with a magnetic stir bar. To this, 2.5 mL of methanol was added followed by L-lysine (0.06 mmol, 2 equivalents). The reaction mixture was stirred for 24 hours at room temperature under open air. Compound 11 and Compound 11+lysine were diluted with methanol to make 0.06 mM solutions for UV-VIS characterization.
as §2, with “13” for “11”, “1.5” for “2.5”, “13+lysine” for “11 and Compound 11+lysine”
as §2, with “5” for “11”, “(n=0.05” for “(n=0.03”, “(0.1” for “(0.06”, “5+lysine” for “11+lysine”, “0.1” for “0.06”
(§3) Compound 7 was weighed out (n=0.04 mmol) into a small vial equipped with a magnetic stir bar. To this, 2 mL of methanol was added followed by L-lysine (0.08 mmol, 2 equivalents). The reaction mixture was stirred for 24 hours at room temperature under open air. Compound 7 and Compound 7+lysine were diluted with methanol to make 0.1 and 0.15 mM solutions, respectively, for UV-VIS characterization.
as §3, with “Compound 9” for “Compound 7”, “out (n=0.03” for “out (n=0.04”, “this, 1.5” for “this, 2”, “L-lysine (0.06” for “L-lysine (0.08”, “Compound 9+lysine” for “Compound 7+lysine”
as §2, with “Genipin” for “Compound 11”, “1.5” for “2.5”, “Genipin+lysine” for “Compound 11 and Compound 11+lysine”
Compound 12 was weighed out (n=0.03 mmol) into a small vial equipped with a magnetic stir bar. To this, 1.5 mL of methanol was added followed by L-lysine (0.06 mmol, 2 equivalents). The reaction mixture was stirred for 24 hours at room temperature under open air. […]

[2] = Color profile of single, binary and ternary dye compositions (Table 5); details: total dye in the final formulation 0.008-0.40 mmol/g

SMILES	color produced upon reaction with amino acids [1]	color of solution after the addition of L-lysine [1]	color of L-lysine reaction solution after dilution [1]	color of solution before the addition of L-lysine [1]	color of dye produced by reaction with L-lysine [1]	λmax of dye produced after reaction with L-lysine [1] [nm]	colors observed with L-lysine (FIG. 33) [1]	further results
COC(=O)C1=COC(O)C2C(C=O)=CCC12 (stereo not drawn) [Compound 1]	vibrant yellow	dark yellow	yellow	colorless	yellow	436	yellow	color of solution 1 hr after the addition of L-lysine [1]: dark brown; color of solution at 44 hours after the addition of L-lysine ([1]; 44 hours): brown
COC(=O)C1=COC(OC(C)=O)C2C(C=O)=CCC12 (stereo not drawn) [Compound 2]								Color when reacted with amino acids [2]: Vibrant Red
COC(=O)C1=COC(O)[C@@H]2C(/C=C/c3ccccc3)=CC[C@H]12 (stereo partly drawn) [Compound 7]	vibrant red							
COC(=O)C1=COC(O)[C@@H]2C(/C=C/c3ccc([N+](=O)[O-])cc3)=CC[C@H]12 (stereo partly drawn) [Compound 9]	vibrant red							
COC(=O)C1=COC(O)C2C1CC1COC12O (stereo not drawn) [Compound 10]		light brown			yellow	433		

Further lines, with some results ahead:

color produced upon reaction with amino acids [1]	color of solution after the addition of L-lysine [1]	color of L-lysine reaction solution after dilution [1]	color of solution before the addition of L-lysine [1]	color of dye produced by reaction with L-lysine [1]	λmax of dye produced after reaction with L-lysine [1] [nm]	colors observed with L-lysine (FIG. 33) [1]	SMILES	further results
vibrant red							CCOC(=O)C(=CC1=CCC2C(C(=O)OC)=COC(OC(C)=O)C12)C(=O)OCC (stereo not drawn) [Compound 11]	
vibrant green	light yellow	light yellow	colorless			light yellow	COC(=O)C1=COC(O)C2C(C(=O)O)=CCC12 (stereo not drawn) [Compound 12]	color of solution at 18 hours after the addition of L-lysine ([1]; 18 hours): dark brown
vibrant orange							CCN(CC)C(=O)C1=CCC2C(C(=O)OC)=COC(O)C12 (stereo not drawn) [Compound 13]	
				red	480		O=C1C(O)=C(c2ccccc2)C(=O)c2ccccc21 [Compound 14, 2-Hydroxy-3-phenyl-1,4-Naphthalenedione]	
	yellow	light blue	colorless			light blue	COC(=O)C1=CO[C@@H](O)[C@@H]2C(CO)=CC[C@H]12 [genipin, reference compound]	color of solution 1 hr after the addition of L-lysine [1]: dark blue
